Experimental data taken from PMC9403976, “Elucidating the path to Plasmodium prolyl-tRNA synthetase inhibitors that overcome halofuginone resistance” (Nature Communications, 2022).
Values joined by “and” are separate entries in the source; they are usually repeats but may differ in a detail not shown here. Identical values can stand only once.

Assays:
[1] = tested on: P. falciparum Dd2-2D4; assay: P. falciparum asexual blood stage (ABS) growth assay, SYBR Green, 72 h, wild-type parasites; assay type: cell-based, Plasmodium falciparum; settings: for parasite growth, replicate wells (Fig 1b): Dd2-2D4
[2] = tested on: halofuginone-induced P. falciparum (elevated proline homeostasis); assay: P. falciparum ABS growth assay, SYBR Green, 72 h, halofuginone-induced parasites; assay type: cell-based, Plasmodium falciparum; settings: for parasite growth, replicate wells (Fig 1b): Halofuginone-Induced
Procedure, shortened: (§1)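 Dd2-derived P. falciparum lines (HFGR-I, halofuginone-induced) at 1% parasitemia and 1% hematocrit in RPMI + 0.5% Albumax were exposed to compounds in triplicate dose-response for 72 h. Growth was read as SYBR Green 1 fluorescence, with 10 μM dihydroartemisinin as kill control and compound-free wells as growth control.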

[3] = tested on: HFGR-I P. falciparum (elevated proline homeostasis and PfcProRS^L482H); assay: P. falciparum ABS growth assay, SYBR Green, 72 h, HFGR-I parasites; assay type: cell-based, Plasmodium falciparum; settings: HFGR-I
Procedure, shortened: as §1

[4] = biological target: HsProRS (Homo sapiens, UniProt P07814); assay: TR-FRET ligand displacement assay with tracer MAT379 (CoraFluor-1-Halo and anti-His6 antibody formats); assay type: binding; set-up: made in house; host or cells: E. coli SoluBL-21; settings: for TR-FRET dose-response, normalized signal (SI Fig 11): individual replicates
HsProRS, sequence (P07814 996-1512): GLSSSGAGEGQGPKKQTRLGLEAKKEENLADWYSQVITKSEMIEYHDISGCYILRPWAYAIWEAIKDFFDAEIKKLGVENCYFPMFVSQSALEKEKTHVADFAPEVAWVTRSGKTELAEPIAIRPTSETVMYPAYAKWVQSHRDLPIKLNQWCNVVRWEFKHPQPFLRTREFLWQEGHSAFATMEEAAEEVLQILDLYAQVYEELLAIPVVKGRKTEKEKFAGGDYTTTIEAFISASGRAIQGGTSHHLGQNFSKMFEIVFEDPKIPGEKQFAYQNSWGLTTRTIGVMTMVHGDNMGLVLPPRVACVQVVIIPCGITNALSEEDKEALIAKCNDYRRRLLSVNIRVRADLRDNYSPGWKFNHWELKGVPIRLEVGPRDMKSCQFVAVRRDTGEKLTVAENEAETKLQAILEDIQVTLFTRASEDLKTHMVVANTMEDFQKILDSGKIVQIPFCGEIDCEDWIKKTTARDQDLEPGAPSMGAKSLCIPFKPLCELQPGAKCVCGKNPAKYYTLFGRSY

In the case of O=C(NC1Cc2ccccc2C1)c1nccnc1NC(=O)C1CCCCC1 [compound 2, reference compound], the “parasite growth, replicate wells (Fig 1b)” value (from here on “parasite growth”) ([1]; Log[inhibitor] (M) -5.000) is reported as 1.00E+00 (2×) and 0.00E+00, the “parasite growth” value ([1]; Log[inhibitor] (M) -5.301) is reported as 0.00E+00 (2×) and -2.00E+00 and the “parasite growth” value ([1]; Log[inhibitor] (M) -5.602) is reported as 1.00E+00 and -1.00E+00 and 2.00E+00. For the same compound, the “parasite growth” value ([1]; Log[inhibitor] (M) -5.903) was 1.70E+01 and 1.20E+01 and 1.60E+01, the “parasite growth” value ([1]; Log[inhibitor] (M) -6.204) was 4.80E+01 (2×) and 4.40E+01 and the “parasite growth” value ([1]; Log[inhibitor] (M) -6.505) was 8.30E+01 (2×) and 8.20E+01. For the same compound, the “parasite growth” value ([1]; Log[inhibitor] (M) -6.806) was 1.04E+02 and 1.00E+02 and 1.01E+02, the “parasite growth” value ([1]; Log[inhibitor] (M) -7.107) was 8.30E+01 and 8.10E+01 and 8.20E+01 and the “parasite growth” value ([1]; Log[inhibitor] (M) -7.408) was 8.20E+01 and 7.90E+01 and 8.10E+01. For the same compound, the “parasite growth” value ([1]; Log[inhibitor] (M) -7.709) was 9.90E+01 and 8.20E+01 and 1.00E+02, the “parasite growth” value ([1]; Log[inhibitor] (M) -8.010) was 9.50E+01 and 1.05E+02 and 1.00E+02 and the “parasite growth” value ([1]; Log[inhibitor] (M) -8.311) was 8.90E+01 and 1.00E+02 and 9.90E+01. The EC50 ([1]; Plasmodium falciparum, DD2, SI Fig 16b, values on -log scale, read-out: ABS - Dd2-2D4 (converted)) was 0.596 µM, the “parasite growth” value ([2]; Log[inhibitor] (M) -5.000) was 1.00E+00 and the “parasite growth” value ([2]; Log[inhibitor] (M) -5.408) was 2.00E+00. For the same compound, the “parasite growth” value ([2]; Log[inhibitor] (M) -5.816) was 2.40E+01 (2×) and 2.50E+01, the “parasite growth” value ([2]; Log[inhibitor] (M) -6.222) was 9.70E+01 and 1.00E+02 and 9.90E+01 and the “parasite growth” value ([2]; Log[inhibitor] (M) -6.638) was 1.00E+02 and 1.02E+02 and 1.04E+02. The “parasite growth” value ([2]; Log[inhibitor] (M) -7.046) was 1.00E+02 and 9.10E+01 and 1.03E+02, the “parasite growth” value ([2]; Log[inhibitor] (M) -7.450) was 9.40E+01 and 9.70E+01 and 9.80E+01 and the “parasite growth” value ([2]; Log[inhibitor] (M) -7.854) was 9.70E+01 (2×) and 1.00E+02. For the same compound, the “parasite growth” value ([2]; Log[inhibitor] (M) -8.260) was 1.00E+02 and 9.20E+01 and 9.80E+01, the “parasite growth” value ([2]; Log[inhibitor] (M) -8.699) was 9.70E+01 (2×) and 9.80E+01 and the “parasite growth” value ([2]; Log[inhibitor] (M) -9.000) was 1.00E+02 and 9.60E+01 and 9.80E+01. For the same compound, the “parasite growth” value ([2]; Log[inhibitor] (M) -9.488) was 9.80E+01 (2×) and 9.90E+01, the “dose-response value, Replicates 1-3 (SI Fig 2e)” value ([2]; Log[inhibitor] (M) -5.000) was 1.0 and the “dose-response value, Replicates 1-3 (SI Fig 2e)” value ([2]; Log[inhibitor] (M) -5.408) was 2.0. For the same compound, the “parasite growth” value ([3]; Log[inhibitor] (M) -5.000) was 6.00E+00 (2×) and 7.00E+00, the “parasite growth” value ([3]; Log[inhibitor] (M) -5.408) was 7.00E+00 (2×) and 8.00E+00 and the “parasite growth” value ([3]; Log[inhibitor] (M) -5.816) was 1.20E+01 (2×) and 1.40E+01. The “parasite growth” value ([3]; Log[inhibitor] (M) -6.222) was 6.90E+01 (2×) and 7.10E+01, the “parasite growth” value ([3]; Log[inhibitor] (M) -6.638) was 8.90E+01 and 9.90E+01 and 9.60E+01 and the “parasite growth” value ([3]; Log[inhibitor] (M) -7.046) was 9.70E+01 and 1.01E+02 (2×). The “parasite growth” value ([3]; Log[inhibitor] (M) -7.450) was 8.80E+01 and 9.60E+01 and 1.00E+02, the “parasite growth” value ([3]; Log[inhibitor] (M) -7.854) was 1.06E+02 and 1.07E+02 and 9.90E+01 and the “parasite growth” value ([3]; Log[inhibitor] (M) -8.260) was 1.03E+02 and 9.80E+01 and 1.01E+02. The “parasite growth” value ([3]; Log[inhibitor] (M) -8.699) was 9.70E+01 (2×) and 9.90E+01, the “parasite growth” value ([3]; Log[inhibitor] (M) -9.000) was 1.04E+02 and 1.02E+02 and 9.80E+01 and the “parasite growth” value ([3]; Log[inhibitor] (M) -9.488) was 9.60E+01 and 9.50E+01 and 9.40E+01. The Kd ([4]; HsProRS (KD [nM]) + ATP, 500 μM ATP, 250 nM MAT379) was 954 nM, the Kd ([4]; HsProRS (KD [nM]) −, absence of substrates, 250 nM MAT379) was 371 nM and the Kd ([4]; HsProRS - best Kd, SI Fig 16a, values on -log scale) was 2.16 nM. The “normalized TR-FRET ligand displacement signal, dose-response replicates (SI Fig 6)” value ([4]; Log[inhibitor] (M) -5.000) was 1.03E-01 and 7.51E-02 and 1.04E-01, the “TR-FRET dose-response, normalized signal (SI Fig 11)” value ([4]; Log[inhibitor] (M) -5.000) was 8.64E-04 and 3.42E-02 and 3.40E-02 and the “normalized TR-FRET ligand displacement signal, dose-response replicates (SI Fig 6)” value ([4]; Log[inhibitor] (M) -5.301) was 1.90E-01 and 1.89E-01 and 1.86E-01. The “TR-FRET dose-response, normalized signal (SI Fig 11)” value ([4]; Log[inhibitor] (M) -5.301) was 7.30E-02 and 5.51E-02 and 3.97E-02, the “normalized TR-FRET ligand displacement signal, dose-response replicates (SI Fig 6)” value ([4]; Log[inhibitor] (M) -5.602) was 3.08E-01 and 2.37E-01 and 3.84E-01 and the “TR-FRET dose-response, normalized signal (SI Fig 11)” value ([4]; Log[inhibitor] (M) -5.602) was 1.33E-01 and 1.75E-01 and 1.42E-01. The “normalized TR-FRET ligand displacement signal, dose-response replicates (SI Fig 6)” value ([4]; Log[inhibitor] (M) -5.903) was 6.24E-01 and 5.01E-01 and 5.97E-01, the “TR-FRET dose-response, normalized signal (SI Fig 11)” value ([4]; Log[inhibitor] (M) -5.903) was 2.61E-01 and 2.29E-01 and 2.70E-01 and the “normalized TR-FRET ligand displacement signal, dose-response replicates (SI Fig 6)” value ([4]; Log[inhibitor] (M) -6.204) was 7.10E-01 and 7.38E-01 and 7.90E-01.
